Assay: Release of fluorometholone from the gel in the rabbit eye, measured in the aqueous humor
Format: in vivo
Settings: measured by fluorometholone contained in the aqueous humor; from the gel of the aqueous polymer suspension
Procedure: The viscous gels that result from fluid eyedrops delivered by means of the aqueous suspensions of this invention have residence times in the eye ranging from about 2 to about 12 hours, e.g., from about 3 to about 6 hours. The active ingredients contained in these ophthalmically acceptable vehicles can be released from the gels at rates that depend on such factors as the active ingredient itself and its physical form, the extent of drug loading and the pH of the system, as well as on any drug delivery adjuvants, such as ion exchange resins compatible with the ocular surface, which can also be present.

CC(=O)[C@@]1(O)CC[C@H]2[C@@H]3C[C@H](C)C4=CC(=O)C=C[C@]4(C)[C@@]3(F)[C@@H](O)C[C@@]21C [fluorometholone]
Release rates in the rabbit eye: in excess of four hours
